Patent US20220267313A1, “DIHYDROPYRIMIDINE DERIVATIVES AND USES THEREOF IN THE TREATMENT OF HBV INFECTION OR OF HBV-INDUCED DISEASES” (Janssen Sciences Ireland Unlimited Company, priority 2019, published 2022)

Columns and labels:
[1] = system: HBV; assay: Anti-HBV activity: HBV DNA in culture medium by qPCR, HepG2.2.15 cells; type: cell-based; details: Hepatitis B virus, 144 h, 6 days treatment
Method: (§1) HepG2.2.15 (the HepG2.2.15 cell line can be produced by transfection of the HepG2 cell line as described in Sells, Chen, and Acs 1987 (Proc. Natl. Acad. Sci. USA 84: 1005-1009), and the HepG2 cell line is available from ATCC® under number HB-8065™)
(§2) HepG2.2.15 cells were plated into 96-well plate in 2% FBS culture medium at the density of 40,000 cells/well and 5,000 cells/well for HBV inhibitory activity and cytotoxicity determination, respectively. After incubation at 37° C., 5% CO2 overnight, cells were treated with medium containing compounds for 6 days with medium and compounds refreshed after 3 days of treatment. Each compound was tested in a 1:3 serial dilutions at 8 different concentrations in triplicate. The highest concentration of the compounds was 10 uM or 1 uM for anti-HBV activity assay and 100 uM for cytotoxicity determination.
The change of HBV DNA level induced by the compounds was assessed by quantitative real-time polymerase chain reaction (qPCR). Briefly, the HBV DNA in the culture medium was extracted using QIAamp 96 DNA Blood Kit according to the manual and then quantified by real-time PCR assay using the primers and probe in the table 1 below.
(§3) EC50 and CC50 values are calculated by the GRAPHPAD PRISM software.

[2] = Cytotoxicity determination by CCK-8 assay, HepG2.2.15 cells; type: cell-based; details: human, 6 days treatment
Method: as §1, §2
Cell viability was determined by CCK-8 assay. After 6 days of compounds treatment, 20 μl CCK-8 reagents were added to each well of cytotoxicity assay plates. Cell plates were incubated at 37° C., 5% CO2 for 2.5 h. The absorbance at 450 nm wavelength and the absorbance at 630 nm wavelength as reference was measured.
as §3

SMILES | EC50 [1] | CC50 at 6 days [2]
COC(=O)C1=C(C23C4C5C2C2C3C4C52C(=O)O)NC(c2nccs2)=N[C@@H]1c1ccc(F)cc1Br (stereo in doubt) [Ib-16, (2S,3S,5S,6S,7S,8S)-4-((S*)-6-(2-bromo-4-fluorophenyl)-5-(methoxycarbonyl)-2-(thiazol-2-yl)-3,6-dihydropyrimidin-4-yl)cubane-1-carboxylic Acid] | > 50000 nM | 71 nM
CCOC(=O)C1=C(C23C4C5C2C2C3C4C52C(=O)O)NC(c2nccs2)=N[C@H]1c1ccc(F)cc1 (stereo in doubt) [Ib-24, (2S,3S,5S,6S,7S,8S)-4-((S*)-5-(ethoxycarbonyl)-6-(4-fluorophenyl)-2-(thiazol-2-yl)-3,6-dihydropyrimidin-4-yl)cubane-1-carboxylic Acid] | > 25000 nM | 223 nM
CCOC(=O)C1=C(C23C4C5C2C2C3C4C52C(=O)O)NC(c2nccs2)=N[C@@H]1c1ccccc1Cl (stereo in doubt) [Ib-25, (2S,3S,5S,6S,7S,8S)-4-((S*)-6-(2-chlorophenyl)-5-(ethoxycarbonyl)-2-(thiazol-2-yl)-3,6-dihydropyrimidin-4-yl)cubane-1-carboxylic Acid] | > 50000 nM | 65 nM
CCOC(=O)C1=C(C23C4C5C2C2C3C4C52C(=O)O)NC(c2nccn2C)=NC1c1ccc(F)c(F)c1Cl (single isomer, unassigned) [Ia-4, (R*)-4-(6-(2-chloro-3,4-difluorophenyl)-5-(ethoxycarbonyl)-2-(1-methyl-1H-imidazol-2-yl)-3,6-dihydropyrimidin-4-yl)cubane-1-carboxylic Acid] | > 50000 nM | 55 nM
CCOC(=O)C1=C(C23C4C5C2C2C3C4C52C(=O)O)NC(c2nccs2)=N[C@@H]1c1cccc(F)c1Cl (stereo in doubt) [Ib-15, (2S,3S,5S,6S,7S,8S)-4-((S*)-6-(2-chloro-3-fluorophenyl)-5-(ethoxycarbonyl)-2-(thiazol-2-yl)-3,6-dihydropyrimidin-4-yl)cubane-1-carboxylic Acid] | > 50000 nM | 19 nM
COC(=O)C1=C(C23C4C5C2C2C3C4C52C(=O)O)NC(c2nccs2)=N[C@@H]1c1ccc(F)c(F)c1C (single isomer, unassigned) [Ia-3] | > 50000 nM | 45 nM
COC(=O)C1=C(C23C4C5C2C2C3C4C52C(=O)O)NC(c2nccs2)=N[C@@H]1c1ccc(F)c(F)c1Br (stereo in doubt) [Ib-13, (2S,3S,5S,6S,7S,8S)-4-((S*)-6-(2-bromo-3,4-difluorophenyl)-5-(methoxycarbonyl)-2-(thiazol-2-yl)-3,6-dihydropyrimidin-4-yl)cubane-1-carboxylic Acid] | > 25000 nM | 27 nM
CCOC(=O)C1=C(C23C4C5C2C2C3C4C52C(=O)O)NC(c2nccs2)=N[C@@H]1c1ccc(F)c(F)c1Br (stereo in doubt) [Ib-14, (2S,3S,5S,6S,7S,8S)-4-((S*)-6-(2-bromo-3,4-difluorophenyl)-5-(ethoxycarbonyl)-2-(thiazol-2-yl)-3,6-dihydropyrimidin-4-yl)cubane-1-carboxylic Acid] | 41000 nM | 7 nM
COC(=O)C1=C(C23C4C5C2C2C3C4C52C(=O)O)NC(c2nccs2)=N[C@@H]1c1ccc(F)c(F)c1Cl (single isomer, unassigned) [Ib-4, (1R,2R,3R,8S)-4-((S*)-6-(2-chloro-3,4-difluorophenyl)-5-(methoxycarbonyl)-2-(thiazol-2-yl)-3,6-dihydropyrimidin-4-yl)cubane-1-carboxylic Acid] | 51000 nM | 22 nM
CCCOC(=O)C1=C(C23C4C5C2C2C3C4C52C(=O)O)NC(c2nccs2)=NC1c1ccc(F)c(F)c1Cl (single isomer, unassigned) [Ib-11, (S*)-4-(6-(2-chloro-3,4-difluorophenyl)-5-(propoxycarbonyl)-2-(thiazol-2-yl)-3,6-dihydropyrimidin-4-yl)cubane-1-carboxylic Acid] | 22000 nM | 52 nM
CCOC(=O)C1=C(C23C4C5C2C2C3C4C52C(=O)O)NC(c2nccs2)=NC1c1ccc(F)c(F)c1F (single isomer, unassigned) [Ib-20, (S*)-4-(5-(ethoxycarbonyl)-2-(thiazol-2-yl)-6-(2,3,4-trifluorophenyl)-3,6-dihydropyrimidin-4-yl)cubane-1-carboxylic Acid] | 46000 nM | 28 nM
CCOC(=O)C1=C(C23C4C5C2C2C3C4C52CC(C)(C)C(=O)O)NC(c2nccs2)=N[C@@H]1c1ccc(F)c(F)c1Cl (single isomer, unassigned) [Ib-28, (S*)-3-(4-(6-(2-chloro-3,4-difluorophenyl)-5-(ethoxycarbonyl)-2-(thiazol-2-yl)-3,6-dihydropyrimidin-4-yl)cuban-1-yl)-2,2-dimethylpropanoic Acid] | 16000 nM | 26.5 nM
CCOC(=O)C1=C(C23C4C5C2C2C3C4C52C(=O)O)NC(c2nccs2)=N[C@@H]1c1ccc(F)cc1Cl (stereo in doubt) [Ib-6, (2S,3S,5S,6S,7S,8S)-4-((S*)-6-(2-chloro-4-fluorophenyl)-5-(ethoxycarbonyl)-2-(thiazol-2-yl)-3,6-dihydropyrimidin-4-yl)cubane-1-carboxylic Acid] | > 50000 nM | 18 nM
COC(=O)C1=C(C23C4C5C2C2C3C4C52C(=O)O)NC(c2nccs2)=N[C@@H]1c1cccc(F)c1Br (stereo in doubt) [Ib-17, (2S,3S,5S,6S,7S,8S)-4-((S*)-6-(2-bromo-3-fluorophenyl)-5-(methoxycarbonyl)-2-(thiazol-2-yl)-3,6-dihydropyrimidin-4-yl)cubane-1-carboxylic Acid] | 25000 nM | 125 nM
COC(=O)C1=C(C23C4C5C2C2C3C4C52C(=O)O)NC(c2nccs2)=N[C@@H]1c1ccc(F)c(F)c1F (stereo in doubt) [Ib-22, (S*)-4-((2,3,4-trifluorophenyl)-6-(methoxycarbonyl)-2-(thiazolel-4-yl))-1,4-dihydropyrimidin-4-yl)cubane-5-carboxylic Acid] | > 25000 nM | 282 nM
CC(C)OC(=O)C1=C(C23C4C5C2C2C3C4C52C(=O)O)NC(c2nccs2)=NC1c1ccc(F)c(F)c1Cl (single isomer, unassigned) [Ib-12, (S*)-6-(6-Carboxy-cuban-3-yl)-4-(2-chloro-3,4-difluoro-phenyl)-2-thiazol-2-yl-1,4-dihydro-pyrimidine-5-carboxylic Acid Isopropyl Ester] | 28000 nM | 37 nM
CCOC(=O)C1=C(C23C4C5C2C2C3C4C52C(=O)O)NC(c2nccs2)=N[C@H]1c1ccc(F)cc1Br (single isomer, unassigned) [Ia-6, (R*)-4-(6-(2-bromo-4-fluorophenyl)-5-(ethoxycarbonyl)-2-(thiazol-2-yl)-3,6-dihydropyrimidin-4-yl)cubane-1-carboxylic Acid] | > 12500 nM | 11.5 nM
COC(=O)C1=C(C23C4C5C2C2C3C4C52c2nc(C(=O)O)co2)NC(c2nccs2)=N[C@@H]1c1ccc(F)cc1Cl (single isomer, unassigned) [Ib-2, 2-((1R,2R,3R,8S)-4-((S*)-6-(2-chloro-4-fluoro-phenyl)-5-(methoxycarbonyl)-2-(thiazol-2-yl)-3,6-dihydropyrimidin-4-yl)cuban-1-yl)oxazole-4-carboxylic Acid] | 24000 nM | 110 nM
COC(=O)C1=C(C23C4C5C2C2C3C4C52C(=O)O)NC(c2nccs2)=N[C@@H]1c1cccc(F)c1C (stereo in doubt) [Ia-1, (2R,3R,5R,6R,7R,8R)-4-((R*)-6-(3-fluoro-2-methylphenyl)-5-(methoxycarbonyl)-2-(thiazol-2-yl)-3,6-dihydropyrimidin-4-yl)cubane-1-carboxylic Acid] | > 50000 nM | 204 nM
COC(=O)C1=C(C23C4C5C2C2C3C4C52C(=O)O)NC(c2nccs2)=NC1c1ccc(F)cc1C (single isomer, unassigned) [Ib-21, (S*)-4-(6-(4-fluoro-2-methylphenyl)-5-(methoxycarbonyl)-2-(thiazol-2-yl)-3,6-dihydropyrimidin-4-yl)cubane-1-carboxylic Acid] | > 50000 nM | 250 nM
COC(=O)C1=C(C23C4C5C2C2C3C4C52C(=O)O)NC(c2nccs2)=N[C@@H]1c1cccc(F)c1Cl (single isomer, unassigned) [Ib-8, (1S,2R,3S,8S)-4-((S*)-6-(2-chloro-3-fluorophenyl)-5-(methoxycarbonyl)-2-(thiazol-2-yl)-3,6-dihydropyrimidin-4-yl)cubane-1-carboxylic Acid] | > 50000 nM | 132 nM
COC(=O)C1=C(C23C4C5C2C2C3C4C52C(=O)O)NC(c2nccs2)=N[C@@H]1c1ccc(F)cc1Cl (single isomer, unassigned) [Ib-3, (1R,2R,3R,8S)-4-((S*)-6-(2-chloro-4-fluorophenyl)-5-(methoxycarbonyl)-2-(thiazol-2-yl)-3,6-dihydropyrimidin-4-yl)cubane-1-carboxylic Acid] | 70000 nM | 84 nM
